Structures are written as SMILES.

One may read the cell viability as a per cent measure of how many cells are alive, often set against a control. Higher therefore signals less harm to the cells.

Common to all, as to type: cell-based
The test system of series [1] is CRL-1739 cells. Briefly: In vitro cytotoxicity (MTT assay). The following applies: 48 h treatment. How it is done:
The cell line was cultured in DMEM supported with 10% fetal bovine serum, 0.5 mg/mL glutamine/penicillin streptomycin at 37 °C and 5% CO2. […] Ninety-six well flat-bottom plates and […] DMEM were used for the seeding procedure. […] Then, 100 μL of MTT solution (5 mg/mL) was put into each well and incubated at 37 °C. The culture medium was removed. Then, 200 μL of dimethysulfoxide was added to obtain the dissolution of the MTT formazan crystals. The absorbance was read at 570 nm using a microplate reader.
(Tetrazolium dyes change colour on reduction, which living cells bring about.)

For series [2], the system named is CRL-1739 cells. Put plainly: Cellular uptake and cell apoptosis analysis by flow cytometry (Annexin V-FITC / propidium iodide). To be noted: 0.05 and 2 mg/mL, 24 h. How it is done: (§1) The control group comprised untreated cells and fresh culture medium without test compounds. CRL-1739 cells were seeded to a 5 × 10^4 cell density in 24-well plates. […] After the administration of formulations, cells were washed with PBS three times. The cells were trypsinized and suspended in fresh PBS with 10% fetal bovine serum.
The suspended formulations were incubated with 5 μL of Annexin V-FITC and 5 μL of propidium iodide for 15 min at room temperature in the dark. The cell suspensions were analyzed by using Guava easy Cyte in terms of cellular uptake.
(In general: In flow cytometry, cells or beads pass a laser one at a time.)

The test system of series [3] is CRL-1739 cells. Briefly: Fluorescence microscopy (Hoechst 33342). As for the experimental part:
as §1
After treatment with the formulations, CRL-1739 cells were fixed and stained with Hoechst 33342 (blue). The cellular uptake of formulations was performed with a Nikon eclipse fluorescence microscope (Nikon, Japan) at a magnification of 1000×. The stained cell nuclei were evaluated.

Regarding `Cc1ccc(NC(=O)c2ccc(CN3CCN(C)CC3)cc2)cc1Nc1nccc(-c2cccnc2)n1` [IMT, Imatinib], in the series with CRL-1739 cells [1], the cell viability came out at 70.5%. Besides, in the series with CRL-1739 cells [2], the “cellular uptake (fluorescence intensity, flow cytometry)” value was “lower fluorescence intensity than cells administered with F16 and F16-IMT”. Further, in the series on CRL-1739 cells [3], the “IMT location and distribution inside cells (fluorescence)” value is “low fluorescence when compared to F16 and F16-IMT”.

(Values after publication PMC8778264 (Nanomaterials, 2022).)
